Measured values reported in patent publication US6872745B2, “Antipicornaviral compounds and compositions, their pharmaceutical uses, and materials for their synthesis” (Agouron Pharmaceuticals, Inc., priority 2000, dated 2005).

What was measured:
[1] = Cytotoxicity in uninfected cells of the anticoxsackieviral assay (XTT); type: cell-based; conditions: human, H1-HeLa cells, table line CAV-21
Protocol: (§1) Coxsackievirus types A-21 (CAV-21) and B3 (CVB3) were purchased from American Type Culture Collection (ATCC, Rockville, Md.). Virus stocks were propagated and antiviral assays were performed in H1-HeLa cells (ATCC). Cells were grown in minimal essential medium with 10% fetal bovine serum (Life Technologies, Gaithersburg, Md.). The ability of the compounds of this invention to protect cells against either CAV-21 or CVB3 infection was measured by the XTT dye reduction method. This method is described in Weislow et al., J. Natl. Cancer Inst. (1989), vol. 81, 577-586. H1-HeLa cells were infected with CAV-21 or CVB3 at a multiplicity of infection (m.o.i.) of 0.025 or 0.075, respectively, or mock-infected with medium only. H1-HeLa cells were plated at 4×10^4 cells per well in a 96-well plate and incubated with appropriate concentrations of the test compound. One day (CVB3) or two days (CAV-21) later, XTT/PMS was added to test plates and the amount of formazan produced was quantified spectrophotometrically at 450/650 nm. The EC50 was calculated as the concentration of compound that increased the formazan production in compound-treated, virus-infected cells to 50% of that produced by compound-free, uninfected cells. […] The therapeutic index (TI) was calculated by dividing the CC50 by the EC50.

HRV-10 = experiment: Antirhinoviral H1-HeLa cell culture assay (XTT cell protection); type: cell-based; conditions: Human rhinovirus sp., HRV10; HRV-10, H1-HeLa cells
Protocol: (§2) In this cell protection assay, the ability of compounds to protect cells against HRV infection was measured by the XTT dye reduction method, which is described in Weislow et al., J. Natl. Cancer Inst. (1989), vol. 81, 577-586. H1-HeLa cells were infected with HRV-14 at a multiplicity of infection (m.o.i.) of 0.13 (virus particles/cell) or mock-infected with medium only. Infected or mock-infected cells were resuspended at 8×10^5 cells per ml, and incubated with appropriate concentrations of the compounds to be tested. Two days later, XTT/PMS was added to test plates and the amount of formazan produced was quantified spectrophotometrically at 450/650 nm. The EC50 value was calculated as the concentration of compound that increased the percentage of formazan production in compound-treated, virus-infected cells to 50% of that produced by compound-free, mock-infected cells. The 50% cytotoxic dose (CC50) was calculated as the concentration of compound that decreased the percentage of formazan produced in compound-treated, mock-infected cells to 50% of that produced by compound-free, mock-infected cells. The therapeutic index (TI) was calculated by dividing the CC50 value by the EC50 value.
(§3) All strains of human rhinovirus (HRV) for use in this assay were purchased from American Type Culture Collection (ATCC), except for HRV serotype-14 (produced from the infectious cDNA clone constructed by Dr. Robert Rueckert, Institute for Molecular Virology, University of Wisconsin, Madison, Wis.). HRV stocks were propagated and viral assays were performed in H1-HeLa cells (ATCC). Cells were grown in minimal essential medium with 10% fetal bovine serum, available from Life Technologies (Gaithersburg, Md.).

[2] = target: T1, rhinovirus 3C protease, serotype 14 (Human rhinovirus 14, UniProt P03303); experiment: Inhibition of rhinovirus 3C protease (FRET assay, enzyme start); type: biochemical; conditions: HRV-14 3C protease, progress curves, read-out: Kobs/I
T1 construct: Recombinant rhinovirus 3C proteases; made in house
T1 sequence (P03303 1538-1719): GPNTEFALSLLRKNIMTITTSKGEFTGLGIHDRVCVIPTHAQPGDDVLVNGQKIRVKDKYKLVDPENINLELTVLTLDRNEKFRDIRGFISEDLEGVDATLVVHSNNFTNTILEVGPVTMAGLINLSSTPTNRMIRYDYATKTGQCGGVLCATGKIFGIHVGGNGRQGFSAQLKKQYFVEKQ
Protocol: Stock solutions (50 mM, in DMSO) of various compounds were prepared; dilutions were in the same solvent. Recombinant rhinovirus 3C proteases (see Birch et al., “Purification of recombinant human rhinovirus 14 3C protease expressed in Escherichia coli,” Protein Expr. Pur. (1995), vol. 6(5), 609-618) from serotypes 14, 16, and 2 were prepared by the following standard chromatographic procedures: (1) ion exchange using Q Sepharose Fast Flow from Pharmacia; (2) affinity chromatography using Affi-Gel Blue from Biorad; and (3) sizing using Sephadex G-100 from Pharmacia. Each assay sample contained 2% DMSO, 50 mM tris pH 7.6, 1 mM EDTA, a test compound at the indicated concentration, approximately 1 μM substrate, and 50-100 nM protease. The kobs/I values were obtained from reactions initiated by addition of enzyme rather than substrate. RVP activity was measured in the fluorescence resonance energy transfer assay. The substrate was (N-terminal) DABCYL-(Gly-Arg-Ala-Val-Phe-Gln-Gly-Pro-Val-Gly)-EDANS. In the uncleaved peptide, the EDANS fluorescence was quenched by the proximal DABCYL moiety. When the peptide was cleaved, the quenching was relieved, and activity was measured as an increase in fluorescence signal. The tabulated data in the column designated kobs/[I] were measured from progress curves in enzyme start experiments.

HRV-1A = experiment: Antirhinoviral H1-HeLa cell culture assay (XTT cell protection); type: cell-based, human rhinovirus; conditions: Rhinovirus A, HRV1A, H1-HeLa cells
Protocol: as §2, §3

HRV-14 = experiment: as above; type: cell-based, human rhinovirus; conditions: Rhinovirus B, HRV14, H1-HeLa, HRV-14, H1-HeLa cells
Protocol: as §2, §3

MRC-5 cells = experiment: Cytotoxicity in uninfected cells of the anti-echoviral/anti-enteroviral assay (XTT); type: cell-based; conditions: table line ENT-70
Protocol: (§4) Echovirus type 11 (ECHO 11) was purchased from ATCC (Rockville, Md.). Virus stocks were propagated and antiviral assays were performed in MRC-5 cells (ATCC). Cells were grown in minimal essential medium with 10% fetal bovine serum (Life Technologies, Gaithersburg, Md.). The ability of the compounds of this invention to protect cells against ECHO 11 infection was measured by the XTT dye reduction method (Weislow et al., J. Natl. Cancer Inst. (1989), vol. 81, 577-586). MRC-5 cells were infected with ECHO 11 at an m.o.i. of 0.003 or 0.004, respectively, or mock-infected with medium only. Infected or uninfected cells were added at 1×10^4 cells per well and incubated with appropriate concentrations of compound. Four days later, XTT/PMS was added to test plates, and the amount of formazan produced was quantified spectrophotometrically at 450/650 nm. The EC50 was calculated as the concentration of compound that increased the formazan production in compound-treated, virus-infected cells to 50% of that produced by compound-free, uninfected cells. […] The therapeutic index (TI) was calculated by dividing the CC50 by the EC50. Activity of the compounds against enterovirus type 70 (EV 70) may be measured by the same assay as described above in this section. […]

[3] = as above; type: cell-based; conditions: human, MRC-5 cells, table line ECHO-11
Protocol: as §4

H1-HeLa cells = experiment: Cytotoxicity in mock-infected cells of the antirhinoviral assay (XTT); type: cell-based
Protocol: as §2, §3

[4] = as above; type: cell-based; conditions: human, H1-HeLa cells
Protocol: as §2, §3

ECHO 11 = experiment: Anti-echoviral cell culture assay (MRC-5, XTT); type: cell-based, Echovirus type 11; conditions: Enterovirus B, MRC5; ECHO-11, MRC-5 cells
Protocol: as §4

CAV-21 = experiment: Anticoxsackieviral cell culture assay (H1-HeLa, XTT); type: cell-based, Coxsackievirus type A-21; conditions: Coxsackievirus; CAV-21, H1-HeLa cells
Protocol: as §1

EV 70 = experiment: Anti-enteroviral cell culture assay (MRC-5, XTT); type: cell-based, enterovirus type 70; conditions: Enterovirus D, MRC5; ENT-70, MRC-5 cells
Protocol: as §4

HRV-39 = experiment: Antirhinoviral H1-HeLa cell culture assay (XTT cell protection); type: cell-based; conditions: Human rhinovirus sp., HRV39; HRV-39, H1-HeLa cells
Protocol: as §2, §3

HRV-25 = experiment: as above; type: cell-based; conditions: Human rhinovirus sp., HRV25; HRV-25, H1-HeLa cells
Protocol: as §2, §3

HRV-9 = experiment: as above; type: cell-based; conditions: Human rhinovirus sp., HRV9; HRV-9, H1-HeLa cells
Protocol: as §2, §3

HRV-3 = experiment: as above; type: cell-based; conditions: Human rhinovirus sp., HRV3; HRV-3, H1-HeLa cells
Protocol: as §2, §3

HRV-87 = experiment: as above; type: cell-based; conditions: Human rhinovirus sp., HRV87; HRV-87, H1-HeLa cells
Protocol: as §2, §3

HRV-16 = experiment: as above; type: cell-based; conditions: Human rhinovirus sp., HRV16; HRV-16, H1-HeLa cells
Protocol: as §2, §3

HRV-2 = experiment: as above; type: cell-based, human rhinovirus; conditions: Rhinovirus A, HRV2; HRV-2, H1-HeLa cells
Protocol: as §2, §3

Compound | EC50 (HRV-10) [µM] | kinact/KI [2] [M⁻¹ s⁻¹] | EC50 (HRV-1A) [µM] | EC50 (HRV-14) [µM] | CC50 (H1-HeLa cells; table line HRV-1A) [µM] | CC50 (H1-HeLa cells; table line HRV-10) [µM] | CC50 at 2 days ([4]; table line HRV-14) [µM] | EC50 (HRV-39) [µM] | EC50 (HRV-25) [µM] | EC50 (HRV-9) [µM] | EC50 (HRV-3) [µM] | CC50 (H1-HeLa cells; table line HRV-3) [µM] | CC50 (H1-HeLa cells; table line HRV-9) [µM] | CC50 (H1-HeLa cells; table line HRV-25) [µM] | CC50 (H1-HeLa cells; table line HRV-39) [µM] | EC50 (HRV-87) [µM] | EC50 (HRV-16) [µM] | EC50 (HRV-2) [µM] | CC50 (H1-HeLa cells; table line HRV-2) [µM] | CC50 (H1-HeLa cells; table line HRV-14) [µM] | other results
CCOC(=O)/C=C/[C@H](C[C@@H]1CCNC1=O)NC(=O)[C@H](Cc1ccccc1)NC(=O)c1ccc(-c2cccc3ccccc23)[nH]1 [Compound 25, 4S-{2S-[(5-Naphthalen-1-yl-1H-pyrrole-2-carbonyl)-amino]-3-phenyl-propionylamino}-5-(2-oxo-pyrrolidin-3S-yl)-pent-2-enoic acid ethyl ester] | 0.148 | 690000 | 0.089 | 0.034 | > 10 | > 10 | > 10 | – | – | – | – | – | – | – | – | – | – | – | – | – | CC50 at 2 days [1]: > 10 µM; CC50 (MRC-5 cells): > 10 µM; CC50 at 4 days [3]: > 10 µM; EC50 (ECHO 11): 0.044 µM; EC50 (CAV-21): 0.2 µM; EC50 (EV 70): 0.003 µM
C#CC[C@H](CC(=O)c1ccc(-c2ccccc2C(F)(F)F)[nH]1)C(=O)N[C@H](/C=C/C(=O)OCC)C[C@@H]1CCNC1=O [Compound 36] | 0.33 | – | 0.145 | – | > 10 | > 10 | > 10 | 0.235 | 0.329 | 0.144 | 0.145 | > 10 | > 10 | > 10 | > 10 | – | – | – | – | – | –
C#CC[C@H](NC(=O)c1ccc(-c2ccccc2C(F)(F)F)[nH]1)C(=O)N[C@H](/C=C/C(=O)OCC)C[C@@H]1CCNC1=O [Compound 29, 5-(2-Oxo-pyrrolidin-3S-yl)-4S-(2S-{[5-(2-trifluoromethyl-phenyl)-1H-pyrrole-2-carbonyl]-amino}-pent-4-ynoylamino)-pent-2(trans)-enoic acid ethyl ester] | 0.027 | 103000 | 0.054 | 0.15 | > 10 | > 10 | > 10 | 0.18 | 0.316 | 0.119 | 0.065 | > 10 | > 10 | > 10 | > 10 | – | – | – | – | – | –
C#CC[C@H](CC(=O)c1ccc(-c2ccccc2Cl)[nH]1)C(=O)N[C@H](/C=C/C(=O)OCC)C[C@@H]1CCNC1=O [Compound 38, 4S-(2R-{2-[5-(2-Chloro-phenyl)-1H-pyrrol-2-yl]-2-oxo-ethyl}-pent-4-ynoylamino)-5-(2-oxo-pyrrolidin-3S-yl)-pent-2(trans)-enoic acid ethyl ester] | 0.446 | 33000 | 0.537 | 0.136 | – | > 10 | – | 0.593 | 1.51 | 0.885 | 0.605 | > 10 | > 10 | > 10 | > 10 | 0.097 | 1.49 | 0.353 | > 10 | > 10 | CC50 (H1-HeLa cells; table line HRV-16): > 10 µM; CC50 (H1-HeLa cells; table line HRV-87): > 10 µM; CC50 at 2 days ([4]; table line HRV-1A): > 10 µM
C#CC[C@H](CC(=O)c1ccc(-c2ccccc2C)[nH]1)C(=O)N[C@H](/C=C/C(=O)OCC)C[C@@H]1CCNC1=O [Compound 39, 5-(2-Oxo-pyrrolidin-3S-yl)-4S-{2R-[2-oxo-2-(5-o-tolyl-1H-pyrrol-2-yl)-ethyl]-pent-4-ynoylamino}-pent-2(trans)-enoic acid ethyl ester] | 0.428 | 20100 | 0.338 | 0.214 | – | > 10 | – | 0.518 | 1.32 | 0.665 | 0.595 | > 10 | > 10 | > 10 | > 10 | 0.083 | 0.952 | 0.214 | > 10 | > 10 | CC50 (H1-HeLa cells; table line HRV-16): > 10 µM; CC50 (H1-HeLa cells; table line HRV-87): > 10 µM; CC50 at 2 days ([4]; table line HRV-1A): > 10 µM
